The values that follow come from patent US9845295B2, “Triphenylethylene compounds and uses thereof” (Purdue Research Foundation, priority 2015, dated 2017).

Molecules are shown by their SMILES.

Data set [1] deals with progesterone receptor (PGR) mRNA expression in MCF-7 human breast cancer cells. The data set is described as follows: Antagonism of β-estradiol-stimulated progesterone receptor (PGR) mRNA expression in MCF-7 cells. Particulars: 1 μM compound, 24 h, 10 nM E2 alone set as 100%. Format: cell-based. Here is the method:
To investigate the effects of ligand binding on ER-mediated transcriptional activities, the triphenylethylene bisphenols were tested for their abilities to antagonize β-estradiol (E2) in a functional assay. […] In this commonly used assay, the progesterone receptor (PGR) mRNA expression is used for assessing estrogenic or antiestrogenic activity in MCF-7 human breast cancer cells. […] The PGR mRNA expression level with 10 nM E2 stimulation alone was set as 100%, and the antiestrogenic effects of the compounds was monitored by the reduction of β-estradiol-stimulated mRNA levels.
Cell Culture and Test Compound Treatment. […]
The MCF-7 cells treated with test compounds or experimental controls for 24 h were harvested for progesterone receptor (PGR) messenger ribonucleic acid (mRNA) extraction. […] The RNA concentration was measured using the Qubit RNA BR assay (Life Technologies Corp., Carlsbad, Calif.) for the Qubit 2.0 fluorometer (Life Technologies Corp., Carlsbad, Calif.). […]
Complementary deoxyribonucleic acid (cDNA) for the real-time quantitative polymerase chain reaction (PCR) assay was synthesized from DNase-treated total RNA using the QuantiTect reverse transcription kit (QiagenInc., Valencia, Calif., USA).
Real-Time Quantitative Polymerase Chain Reaction (PCR) for cDNA. […]

The target of data set [2] is T1, recombinant human aromatase (CYP19) (Homo sapiens, UniProt P11511).
T1 construct: purchased BD Biosciences (San Jose, Calif.)
T1 sequence (P11511 1-503): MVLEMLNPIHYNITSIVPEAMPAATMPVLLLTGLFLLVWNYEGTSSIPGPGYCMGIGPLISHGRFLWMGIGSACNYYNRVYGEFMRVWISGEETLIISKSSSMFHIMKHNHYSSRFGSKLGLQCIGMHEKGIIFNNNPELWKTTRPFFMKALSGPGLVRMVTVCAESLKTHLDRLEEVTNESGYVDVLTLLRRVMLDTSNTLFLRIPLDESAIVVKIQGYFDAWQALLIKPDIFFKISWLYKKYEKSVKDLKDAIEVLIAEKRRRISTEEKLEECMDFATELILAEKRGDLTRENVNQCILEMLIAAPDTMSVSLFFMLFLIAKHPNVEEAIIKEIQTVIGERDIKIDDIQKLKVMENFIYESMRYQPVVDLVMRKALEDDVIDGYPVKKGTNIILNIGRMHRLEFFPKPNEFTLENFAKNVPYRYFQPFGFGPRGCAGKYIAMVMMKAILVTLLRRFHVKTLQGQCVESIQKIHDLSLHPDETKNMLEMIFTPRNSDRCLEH
In words: Inhibition of recombinant human aromatase (CYP19) by microsomal incubations (MFC fluorometric substrate). Format: biochemical. The protocol:
Inhibition of Recombinant Human Aromatase (CYP19) by Microsomal Incubations.
All tested samples were dissolved in either methanol or DMSO. […] All the reactions were stopped by adding 0.1 M tris base dissolved in acetonitrile (75 μL). […] The extent of enzyme inhibition was expressed as the percentage of remaining enzyme activity compared to the control.

A further data set addresses T2, recombinant human ER-α (Homo sapiens, UniProt P03372).
T2 construct: purchased Invitrogen (Carlsbad, Calif.)
T2 sequence (P03372 1-595): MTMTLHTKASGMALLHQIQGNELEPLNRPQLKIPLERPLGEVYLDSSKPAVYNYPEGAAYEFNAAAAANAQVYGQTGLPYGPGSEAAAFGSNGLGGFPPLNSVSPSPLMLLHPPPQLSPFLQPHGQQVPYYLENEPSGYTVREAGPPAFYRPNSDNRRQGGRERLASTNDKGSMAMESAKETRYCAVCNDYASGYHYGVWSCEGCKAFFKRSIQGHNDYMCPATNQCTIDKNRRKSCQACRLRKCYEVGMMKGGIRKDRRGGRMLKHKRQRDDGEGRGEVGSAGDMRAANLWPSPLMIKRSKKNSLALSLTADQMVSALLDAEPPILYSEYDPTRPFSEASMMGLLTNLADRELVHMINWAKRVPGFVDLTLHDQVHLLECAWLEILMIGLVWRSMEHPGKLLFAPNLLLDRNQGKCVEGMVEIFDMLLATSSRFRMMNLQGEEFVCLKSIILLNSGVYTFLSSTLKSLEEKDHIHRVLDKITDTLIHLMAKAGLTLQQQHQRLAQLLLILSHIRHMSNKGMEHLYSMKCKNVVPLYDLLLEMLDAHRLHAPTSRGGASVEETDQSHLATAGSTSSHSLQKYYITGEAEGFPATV
In words: Binding affinity for recombinant human ER-α (fluorescence polarization, ES2 displacement). The protocol: (§1) Binding Affinities for Recombinant Human ER-α and ER-β.
(§2) The binding affinities of ER-α and ER-β were determined by measuring the change of polarization value when the fluorescent estrogen ligand, ES2, was displaced by the tested compounds. Experimental procedures were consistent with the protocol provided by Invitrogen. The fluorescent estrogen ligand, ES2, was provided in methanol/water (4:1, v/v) with the concentration of 1800 nM. Recombinant human ER-α and ER-β were provided in buffer (50 mM bis-tris propane, 400 mM KCl, 2 mM DTT, 1 mM EDTA and 10% glycerol), with the concentration of 734 nM and 3800 nM, respectively. All tested samples were dissolved in either methanol or DMSO. The sample solutions (1 pt) were mixed well with 49 pt of ES2 screening buffer (100 mM potassium phosphate, 100 μg/mL BGG and 0.02% NaN3). The ER-α/ES2 complex was prepared with the fluorescent estrogen ligand ES2, human recombinant ER and ES2 screening buffer with the concentrations of 9 nM ES2 and 30 nM ER-α. The ER-β/ES2 complex was prepared with the fluorescent estrogen ligand ES2, human recombinant ER-β and ES2 screening buffer with the concentrations of 9 nM ES2 and 20 nM ER-ft Reactions were initiated by adding ER/ES2 complex (50 μL) to bring the incubation volume to 100 μL and incubated for 2 h avoiding light. […] Excitation-emission wavelengths for fluorescence polarization were […]. The polarization values in the presence of the test competitors were compared with those in control, in which the competitor was replaced with vehicle. The extent of competition was expressed as the percentage of remaining polarization compared to the control.
(In fluorescence polarisation assays a small probe gives low polarisation when free and higher when bound to something large.)

Another data set has as its target T3, recombinant human ER-β (Homo sapiens, UniProt Q92731).
T3 construct: purchased Invitrogen (Carlsbad, Calif.)
In words: Binding affinity for recombinant human ER-β (fluorescence polarization, ES2 displacement). Particulars: Table 1; determined only for compounds with >90% competition. Here is the method:
as §1, §2

In another data set the test system is ER in MCF-7-2a cells. Particulars: in words; cited from earlier work.
Data set [3] deals with postmenopausal women with breast cancer. Particulars: five-year ATAC trial; cited from earlier work.
[4] abbreviates: Table 1, mean of at least three experiments.

T3 sequence (Q92731 whole entry): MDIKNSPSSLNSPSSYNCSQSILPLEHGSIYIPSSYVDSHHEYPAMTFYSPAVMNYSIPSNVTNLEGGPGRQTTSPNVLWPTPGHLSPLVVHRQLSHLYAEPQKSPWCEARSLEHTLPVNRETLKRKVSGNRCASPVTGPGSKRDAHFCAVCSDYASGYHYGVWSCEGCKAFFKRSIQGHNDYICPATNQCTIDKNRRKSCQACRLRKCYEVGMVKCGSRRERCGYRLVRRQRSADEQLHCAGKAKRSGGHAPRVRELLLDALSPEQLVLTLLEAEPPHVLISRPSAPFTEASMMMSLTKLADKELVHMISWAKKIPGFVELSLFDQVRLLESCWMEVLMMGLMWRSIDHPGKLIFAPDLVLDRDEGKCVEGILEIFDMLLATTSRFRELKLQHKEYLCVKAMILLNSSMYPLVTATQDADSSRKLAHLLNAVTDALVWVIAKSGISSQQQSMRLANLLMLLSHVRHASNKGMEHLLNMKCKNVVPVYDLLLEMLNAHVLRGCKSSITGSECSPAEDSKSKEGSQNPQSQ

Consider `CC/C(=C(\c1ccc(O)cc1)c1ccc(OCCN)cc1)c1ccccc1` [(E,Z)-norendoxifen], for which the “PGR mRNA expression level in the presence of 10 nM E2” value in data set [1] is recorded as 33%.
The IC50 is the point on the concentration scale where inhibition reaches its midpoint. For orientation: EC50 means the concentration at which the effect is half-maximal. For the compound `CCC(=C(c1ccc(O)cc1)c1ccc(O)cc1)c1ccccc1` [Compound 7, reference compound], the IC50 in data set [2] (Table 2, determined for compounds with inhibition higher than 90%) was found to be 24900 ± 1400 nM. Also, the ER-α percent competition at recombinant human ER-α (Table 2, at 100000 nM compound) was 80% competition. Also, the EC50 on recombinant human ER-β worked out at 307 ± 106 nM. In addition, the “ER antagonism / agonism in MCF-7-2a cells” value in the data set on ER in MCF-7-2a cells was “good ER antagonist without significant agonistic side effects”.
By melting point is commonly meant the temperature, or range, at which the solid turns liquid. The compound `N#CCC(=C(c1ccc(O)cc1)c1ccc(O)cc1)c1ccccc1` [Compound 11, 4,4-Bis(4-hydroxyphenyl)-3-phenylbut-3-enenitrile] displayed a melting point of 198 to 200 °C. Further, in data set [2] (setting [4]), the IC50 came out at 12800 nM. Besides, the ER-α percent competition at recombinant human ER-α (Table 1, at 100 μM compound) is 56% competition.
As for `Oc1ccc(C(=C(Cn2ccnc2)c2ccccc2)c2ccc(O)cc2)cc1` [Compound 12, 4,4′-(3-(1H-Imidazol-1-yl)-2-phenylprop-1-ene-1,1-diyl)diphenol], the melting point lay in the range of 225 to 227 °C. The IC50 in data set [2] (setting [4]) was determined as 4.77 ± 0.38 nM. In addition, the “fold improvement/increase in aromatase inhibitory activity compared with 7” value in data set [2] (vs compound 7) is more than 5000 fold. Moreover, the EC50 on recombinant human ER-α (Table 1, determined only for compounds with >90% competition) was 27.3 nM. Also, the EC50 at recombinant human ER-β stood at 40.9 nM.
In the case of `Oc1ccc(C(=C(Cn2cncn2)c2ccccc2)c2ccc(O)cc2)cc1` [Compound 13, 4,4′-(2-Phenyl-3-(1H-1,2,4-triazol-1-yl)prop-1-ene-1,1-diyl)diphenol], the melting point was in the range of 143 to 145 °C. Moreover, in data set [2] (setting [4]), the IC50 is 137 nM. In addition, the ER-α percent competition at recombinant human ER-α (Table 1, at 100 μM compound) is 12% competition.
Compound `N#CCC(=C(c1ccc(O)cc1)c1ccc(O)cc1)c1ccc(O)c(F)c1` [Compound 17b, 3-(3-Fluoro-4-hydroxyphenyl)-4,4-bis(4-hydroxyphenyl)but-3-enenitrile] displayed a melting point of 180 to 183 °C. In data set [2] (setting [4]), the IC50 stood at 17200 ± 2200 nM. In addition, the ER-α percent competition at recombinant human ER-α (Table 1, at 100 μM compound) amounted to 0% competition.
`N#CCC(=C(c1ccc(O)cc1)c1ccc(O)cc1)c1ccc(N)cc1` [Compound 25, 3-(4-Aminophenyl)-4,4-bis(4-hydroxyphenyl)but-3-enenitrile] showed a melting point of 235 to 238 °C. For the same compound, the IC50 in data set [2] (setting [4]) amounted to 36.3 ± 0.8 nM. Besides, the ER-α percent competition on recombinant human ER-α (Table 1, at 100 μM compound) was found to be 0% competition.
As for `CC/C(=C(\c1ccc(O)cc1)c1ccc(OCCNC)cc1)c1ccccc1` [Endoxifen], in data set [1], the “PGR mRNA expression level in the presence of 10 nM E2” value stood at 10%.
Consider `CC(C)(C#N)c1cc(Cn2cncn2)cc(C(C)(C)C#N)c1` [anastrozole], for which, in data set [3], the “improvement of disease-free survival compared to tamoxifen” value was 13%, the “reduction in occurrence of contralateral breast cancer compared to tamoxifen” value is 42%, the “reduction in risk of distant metastasis compared to tamoxifen” value was 16% and the “reduction in the rate of recurrence compared to tamoxifen” value is listed as 21%.
